Data published in US11370769B2, “TRPC5 inhibitors and methods of using same” (BOARD OF REGENTS OF THE UNIVERSITY OF NEBRASKA, priority 2017, dated 2022).

Legend:
caAT1R podocytes = experiment: ROS assay in caAT1R expressing podocytes; assay type: cell-based, mouse; conditions: 30 μM ML204, 30 μM AC1903 or 50 μM NSC23677 for 36 hours
Experimental: Podocyte culture and viral transduction: Immortalized mouse podocytes were cultured as previously described (10, 11). Podocyte viral transduction was performed using lentivirus as previously described (10, 11). Briefly, lentivirus production was carried out in HEK293T cells at 60% confluence, and viral particles were collected two days after transfection and purified by centrifugation at 1,000 rcf for 5 min. Purified lentivirus was frozen at −80° C. until further use. Podocytes were transduced with lentivirus after 7 days of differentiation, and assays were performed 5 days after viral transduction.
For experiments in FIG. 4B/C, pCDNA3.1 AT1AR-Δ324 (rat AT1R NM_030985.4) containing HA tag (Plasmid #45635, Addgene) underwent site directed mutagenesis (Agilent) to generate the N111S substitution. For FIG. 4B, differentiated podocytes were transduced with the AT1A-N111S/Δ324 construct in six-well plates. Six days after viral transduction, cells were treated with either vehicle, 30 μM ML204, 30 μM AC1903 or 50 μM NSC23677 for 36 hours. Intracellular production of ROS was measured using a cell-permeable fluorescent dye, 5-(and-6)-chloromethyl-2′,7′-dichlorodihydrofluorescein diacetate, acetyl ester (CM-H2DCFDA, Molecular Probes). Cells were incubated with 5 μM CM-H2DCFDA at 37° C. for 45 min in Hanks' balanced salt solution (HBSS). Cells were then collected, resuspended in HBSS, stained with propidium iodide and the fluorescence intensity was assessed by flow cytometry using MACSQuant Analyzer (Miltenyi Biotec, Bergisch Gladbach, Germany). Living cells, which were PI negative, were selected by FACS gating and the fluorescence of CM-H2DCFDA was recorded on the FL-1 channel (525 nm). For FIG. 4C, differentiated podocytes were transduced with the AT1A-N111S/Δ324 construct in 96 well plates. Six days after transduction, the cells were treated with either vehicle, 30 μM ML204, 30 μM AC1903 or 50 μM NSC23677 for 36 hours. […]

AT1R Tg rats = experiment: AT1R Tg rat model of progressive FSGS; assay type: in vivo
Experimental: Animals and chemicals: Littermates of wild-type (WT) and AT1R TgNeph-hAT1R/185 transgenic (AT1R Tg) rats were housed under a controlled environment with a 12-hour light-dark cycle and access to food and water ad libitum, unless otherwise described. All animal experiments were performed in accordance to the guidelines established and approved by the Animal Care and Use Committee at Brigham and Women's Hospital, Harvard Medical School (Animal Protocol No. 01538). AT1R Tg rats were placed in the Onset cohort when measured proteinuria was >5 mg/day (at approximately 12 weeks of age) on two separate 24-hour urine collections. AT1R Tg rats were placed in the Advanced cohort when measured proteinuria was >25 mg/day (at approximately 18 weeks of age) on two separate 24-hour urine collections. These thresholds were determined after detailed histologic and phenotypic characterization of AT1R Tg rats compared to WT littermates (all combined, n=91 WT rats and n=122 AT1R Tg rats were studied). The Dahl salt-sensitive (S) inbred strain is maintained at University of Mississippi Medical Center (UMMC) and was originally obtained from University of Toledo-College of Medicine (SS/Jr). All animal experiments performed at UMMC were in accordance to the guidelines established and approved by the Institutional Animal Care and Use Committee. Animals used for this studied were provided either low-salt diet [TD7034, 0.3% NaCl and/or high-salt diet [TD94217, 2.0% NaCl] from Harlan Teklad, Madison, Wis. For onset study, at 4 weeks of age, groups of age-matched male S were weaned to the low-salt diet and divided into two groups: vehicle (n=8) and AC1903 groups (n=8). At 6 weeks of age, both groups were placed on the high-salt diet and concurrently treated with either vehicle or AC1903 for 1-week (Onset). For Advanced study, similarly at 4 weeks of age, groups of age-matched male S were weaned to the low-salt diet and divided into two groups: vehicle (n=9) and AC1903 groups (n=11). At 6 weeks of age, both groups were placed on the high-salt diet. At week 7, concurrent with high-salt diet, animals were treated with either vehicle or AC1903 for 1-week (Advanced). At the conclusion of each study, animals were initially anesthetized under 2-3% isoflurane/O2 gas, a catheter attached to a fluid filled pressure transducer was placed in the aorta, isoflurane gas was reduced to 1.5%, and mean arterial pressure was measured for ˜5 min period using PowerLab 4/30 system (ADI Instruments, Co) as done previously. All chemicals were purchased from Sigma-Aldrich unless otherwise described.
Chemical preparation and IP administration: ML204 and AC1903 were prepared from powder in a single batch for each in vivo experiment to avoid variability. Immediately prior to injections, ML204 or AC1903 solution was placed on a heated shaker at 48° C. and 800 RPM. Vehicle was prepared in the same fashion. Injection volume was determined by body weight (2 mL vehicle/compound per kg body weight). Body weight was measured at the time of injection.
Urine collection and assay: For urine collections, rats were housed individually in a metabolic cage supplied with food and water. Urine was collected into a 50 mL falcon tube for 24 hours. Total urine volume was measured and then centrifuged at 3,200 rcf for 10 min at 4° C. Albumin quantification was done according to previously published protocol (11), involving multiple dilutions of urine from each animal compared to Bovine Serum Albumin (BSA) standards. Coumassie Blue stained gels were quantified by densitometry using ImageJ software. As an additional control, the rat ELISA Albumin kit (Exocell) was used for albumin quantification according to the manufacturer's recommendations and yielded the same results. Urine protein was measured using QuanTtest® Red Total Protein Assay System (Quantimetrix, Redondo Beach, Calif.) and expressed as mg protein/24 hours. […]

SMILES | caAT1R-induced ROS generation (caAT1R podocytes) | numbers of podocytes per glomerulus (AT1R Tg rats; AC1903-treated AT1R Tg rats) | BUN (AT1R Tg rats; AC1903 treatment) | body weight (AT1R Tg rats; AC1903 treatment) | creatinine (AT1R Tg rats; AC1903 treatment) | podocyte numbers compared to vehicle treated controls (AT1R Tg rats; Advanced, AC1903 50 mg/kg) | pseudocyst formation (AT1R Tg rats; Advanced, AC1903 50 mg/kg) | proteinuria (AT1R Tg rats; Advanced, AC1903 50 mg/kg twice daily i.p. for 7 days) | proteinuria progression (AT1R Tg rats; Advanced cohort, 25 mg/kg twice daily i.p., at 7 days and 14 days) | podocyte pseudocyst formation (AT1R Tg rats; Advanced, ML204) | podocyte numbers (morphometric analysis) (AT1R Tg rats; Advanced, ML204 vs PBS-treated Tg rats) | BUN (AT1R Tg rats; ML204 treatment) | body weight (AT1R Tg rats; ML204 treatment) | creatinine (AT1R Tg rats; ML204 treatment) | proteinuria (AT1R Tg rats; Onset cohort, ML204 twice daily i.p. for 7 days)
c1ccc(Cn2c(NCc3ccco3)nc3ccccc32)cc1 [AC1903] | blocked caAT1R-induced ROS generation | approximately 120 podocytes/glom | did not affect | did not affect | did not affect | preserved numbers of podocytes | significant reduction in pseudocyst formation | sufficient to suppress severe proteinuria | – | – | – | – | – | – | –
Cc1cc(N2CCCCC2)nc2ccccc12 [ML204, reference compound] | blocked caAT1R-induced ROS generation | – | – | – | – | – | – | – | suppressed progression of proteinuric disease | prevented pseudocyst formation | prevented podocyte loss | did not affect | did not affect | did not affect | complete suppression of proteinuria down to baseline levels
